Experimental data as given in article PMC8296573, “Synthesis and Biological Evaluation of Fingolimod Derivatives as Antibacterial Agents” (ACS Omega, 2021).

Assay: Cytotoxicity, resazurin staining assay
Type: cell-based, human
Settings: human, 24 h incubation
Description: The cytotoxicity of the compounds was assessed on the three different human cell lines, A549, HEp-2, and HL-60, using the redox-based resazurin staining assay. The cells were seeded in clear 96-well plates at a density of 1 × 10^4 cells per well in a volume of 200 μL per well. The adherent cells were let to attach for 24 h before changing the media and adding the compounds (final concentration of 0.25% DMSO). HL-60 were counted and added to the plates at a density of 1 × 10^4 cells per well in a volume of 200 μL directly with the compounds. Untreated cells were used as negative controls, and cells treated with 1% TritonX-100 (Sigma-Aldrich, St. Louis, MO) were used as positive controls for cytotoxicity. The cells were incubated with the compounds for 24 h.
For the resazurin assay, the media was first removed, and the adherent cells were washed once with PBS. Then, 200 μL of 20 μM resazurin was added per well and cells were incubated for two more hours before the measurement of fluorescence, as mentioned earlier. For HL-60, 10 μL of 400 μM resazurin was added directly to the wells and the cells were incubated for an additional 4 h before the measurement of fluorescence.

CCCCCCCCCCc1ccc(CCC(N)(CO)CO)nc1 [Compound 62, 2-Amino-2-[2-(5-decylpyridin-2-yl)ethyl]propane-1,3-diol]
CC50 at 24 h (A549 cells): 27.6 ± 6.4 µM | CC50 at 24 h (HEp-2 cells): 30.9 ± 6.2 µM | CC50 at 24 h (HL-60 cells): 3.6 ± 0.4 µM
